Measured values taken from patent US6001818A, “Use of 2',3'-dideoxycytidin-2'-ene (2'- ,3'-dideoxy-2'3'-didehydrocytidine) in treating patients infected with retroviruses” (Yale University, priority 1991, dated 1999).

Key:
[1] = test system: Moloney Murine Leukemia Virus; experiment: Antiviral screening against Moloney Murine Leukemia Virus (M-MuLV) by XC-assay (plaque reduction, SC-1 cells); type: cell-based; conditions: SC1, SC-1/XC cells, Reed-Muench Method, read-out: ID50 (median inhibitory dose, virus plaque number)
From the text: Assay Procedure For Antiviral […] Against Moloney Murine Leukemia Virus (M-MuLV) By XC-Assay: The XC assay system is an indirect method for quantitation of murine-leukemia virus (MULV) originally described by […] et al, Proc. Nat'l. Acad Sci., 63, 753-758, (1969) and modified by W. Rowe et al, Virology, 42, 1136-1139, (1970). This test is based on the development of syncytial changes in the XC cell line when it is co-cultivated with mouse fibroblast cells (SC-1 cells) productively infected with MULV. The XC cell line was derived from a rat tumor induced by the Prague strain of Rous Sarcoma Virus (RSV) (J. Svobada et al, Folia Biol., 9, 77-81, […]). […] The following day, the cells were inoculated with 0.5 mL of a virus dilution containing 25 μg/mL of DEAE-dextran. […] The virus inoculum was then removed and replaced with 5mL of medium containing appropriate concentration of the test compound (two dishes/concentration). […] The medium (with or without the test compound) was changed at 48 hours. Five days after virus inoculation, the culture fluid was decanted and the cells were irradiated with a "GE" germicidal bulb for 30 seconds (60 ergs/mm^2 /sec UV-light). […] Virus plaques (i.e., areas of the cell sheet containing syncytial cells or focal masses of multinucleated giant cells) were counted using an inverted microscope.

MT-2 cells = experiment: Viability of HTLV-III/LAV-infected MT-2 cells (trypan blue exclusion); type: cell-based; conditions: Homo sapiens, MT2, 168 h, day 7 post-infection, read-out: % Viable Cells (cells that excluded trypan blue / cells scored)
[2] = Water solubility (compared with AZT); type: physicochemical; conditions: compared with 3'-azido-3'-deoxythymidine (AZT)
[3] = test system: retroviruses, e.g., murine leukemia virus and HTLV III/LAV virus; experiment: Antiviral activity against retroviruses (general statement); type: cell-based; conditions: murine leukemia virus and HTLV III/LAV virus (the AIDS virus)
HTLV-III/LAV [4] = experiment: Inhibition of HTLV-III/LAV cytopathic effect in MT-2 cells (visual inspection); type: cell-based; conditions: for % Apparent CPE (destroyed cells / total cells scored): MT-2 cells, day 7 post-infection
HTLV-III/LAV [5] = experiment: Fluorescent assay of inhibition of HTLV-III/LAV in MT-2 cells (monoclonal antibody αp18); type: cell-based; conditions: day 7 post-infection
HTLV-III/LAV virus = conditions: Mitsuya and Broder, supra; cited from earlier work

## Nc1ccn([C@H]2C=C[C@@H](CO)O2)c(=O)n1 [2',3'-dideoxycytidin-2'-ene]
[1]
  IC50: 3.7 µM
MT-2 cells
  viability at 0.5 µM: 22%
  viability at 1 µM: 90%
[2]
  water solubility: much better water solubility than that of 3'-azido-3'-deoxythymidine (AZT)
[3]
  antiviral activity against retroviruses: has antiviral activity against retroviruses
HTLV-III/LAV [4]; 0.5 μM
  % Apparent CPE (destroyed cells / total cells scored): 90 ± 0.0%
HTLV-III/LAV [4]; 1.0 μM
  % Apparent CPE (destroyed cells / total cells scored): 0.5 ± 0.5%
HTLV-III/LAV [4]; HTLV-III/LAV infection in vitro, conclusion from Table 2 data
  effective dose compared with 2',3'-dideoxycytidine: effective dose falls in the same range as 2',3'-dideoxycytidine
HTLV-III/LAV [4]; conclusion from Table 2 data
  antiviral activity against HTLV-III/LAV infection in vitro: has antiviral activity against the HTLV-III/LAV infection in vitro
HTLV-III/LAV [5]; 0.5 μM
  % Fluoresence (fluorescent cells / total cells scored): 5.6 ± 5.5%
HTLV-III/LAV [5]; 1.0 μM
  % Fluoresence (fluorescent cells / total cells scored): 1.1 ± 0.1%

## Nc1ccn([C@H]2CC[C@@H](CO)O2)c(=O)n1 [2',3'-dideoxycytidine, reference compound]
[1]
  IC50: 4 µM
MT-2 cells
  viability at 0.5 µM: 75%
  viability at 1 µM: 96%
HTLV-III/LAV [4]; 0.5 μM
  % Apparent CPE (destroyed cells / total cells scored): 40 ± 10%
HTLV-III/LAV [4]; 1.0 μM
  % Apparent CPE (destroyed cells / total cells scored): 1.0 ± 0.0%
HTLV-III/LAV virus
  potency against HTLV-III/LAV virus in culture: known potent compound against HTLV-III/LAV virus in culture
HTLV-III/LAV [5]; 0.5 μM
  % Fluoresence (fluorescent cells / total cells scored): 4.3 ± 0.3%
HTLV-III/LAV [5]; 1.0 μM
  % Fluoresence (fluorescent cells / total cells scored): 0.2 ± 0.1%
